Results from patent US5770603A, “Quinazoline derivatives” (Zeneca Limited, priority 1996, dated 1998).
pIC50: −log10 of the molar value. “And” between values parts separate entries of the source, which are not always exact repeats. Identical values can stand only once.

Key:
[1] = tested on: EGF receptor tyrosine kinase; conditions: Fry et al., Science, 1994, 265, 1093; cited from earlier work
[2] = target: T1, EGF receptor tyrosine kinase (Homo sapiens, UniProt P00533); assay: Test (a): in vitro inhibition of the enzyme EGF receptor tyrosine kinase (partially purified from A-431 cells); format: biochemical; conditions: example values stated as approximate
T1 construct: Receptor tyrosine kinase was obtained in partially purified form from A-431 cells; endogenous in cells; host or cells: A-431 cells (human vulval carcinoma), Triton X-100 solubilised pelleted material
T1 sequence (P00533 25-1210): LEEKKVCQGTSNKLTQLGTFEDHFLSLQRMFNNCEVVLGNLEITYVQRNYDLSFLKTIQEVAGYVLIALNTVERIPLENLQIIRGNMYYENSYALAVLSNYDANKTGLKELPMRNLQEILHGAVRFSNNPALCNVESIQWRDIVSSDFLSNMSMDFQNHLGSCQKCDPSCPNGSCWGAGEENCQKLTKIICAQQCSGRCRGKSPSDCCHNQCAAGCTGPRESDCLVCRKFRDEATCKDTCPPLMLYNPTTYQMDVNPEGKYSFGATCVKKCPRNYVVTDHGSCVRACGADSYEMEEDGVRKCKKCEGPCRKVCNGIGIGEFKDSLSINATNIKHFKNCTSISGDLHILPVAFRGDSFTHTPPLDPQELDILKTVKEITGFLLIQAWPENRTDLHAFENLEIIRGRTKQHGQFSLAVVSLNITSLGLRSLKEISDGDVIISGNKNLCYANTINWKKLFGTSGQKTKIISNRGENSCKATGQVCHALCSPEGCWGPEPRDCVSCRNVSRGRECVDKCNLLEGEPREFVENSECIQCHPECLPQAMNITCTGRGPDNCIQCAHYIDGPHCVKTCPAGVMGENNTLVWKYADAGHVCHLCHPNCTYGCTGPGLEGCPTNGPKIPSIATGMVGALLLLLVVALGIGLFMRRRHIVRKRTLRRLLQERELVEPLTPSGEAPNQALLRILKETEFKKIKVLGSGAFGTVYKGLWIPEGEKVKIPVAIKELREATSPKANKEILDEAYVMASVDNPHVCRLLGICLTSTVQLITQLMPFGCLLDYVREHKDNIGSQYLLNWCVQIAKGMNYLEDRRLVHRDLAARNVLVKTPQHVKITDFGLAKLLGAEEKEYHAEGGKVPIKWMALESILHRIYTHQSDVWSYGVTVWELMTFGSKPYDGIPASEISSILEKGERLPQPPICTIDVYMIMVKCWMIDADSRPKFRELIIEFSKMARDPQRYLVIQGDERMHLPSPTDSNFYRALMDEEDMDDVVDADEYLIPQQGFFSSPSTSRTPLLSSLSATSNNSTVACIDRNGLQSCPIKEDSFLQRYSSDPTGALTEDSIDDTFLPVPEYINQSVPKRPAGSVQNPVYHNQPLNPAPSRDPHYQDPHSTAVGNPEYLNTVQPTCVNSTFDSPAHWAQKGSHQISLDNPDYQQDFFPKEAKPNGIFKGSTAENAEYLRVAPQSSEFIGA
Protocol: (a) An in vitro assay which determines the ability of a test compound to inhibit the enzyme EGF receptor tyrosine kinase. Receptor tyrosine kinase was obtained in partially purified form from A-431 cells (derived from human vulval carcinoma) by the procedures described below which are related to those described by Carpenter et al, J. Biol. Chem., 1979, 254, 4884, Cohen et al, J. Biol. Chem., 1982, 257, 1523 and by Braun et al., J. Biol. Chem., 1984, 259, 2051.
A-431 cells were grown to confluence using Dulbecco's modified Eagle's medium (DMEM) containing 5% fetal calf serum (FCS). The obtained cells were homogenised in a hypotonic borate/EDTA buffer at pH 10.1. The homogenate was centrifuged at 400 g for 10 minutes at 0°-4° C. The supernatant was centrifuged at 25,000 g for 30 minutes at 0°-4° C. The pelleted material was suspended in 30 mM Hepes buffer at pH 7.4 containing 5% glycerol, 4 mM benzamidine and 1% Triton X-100, stirred for 1 hour at 0°-4° C., and recentrifuged at 100,000 g for 1 hour at 0°-4° C. The supernatant, containing solubilised receptor tyrosine kinase, was stored in liquid nitrogen.
For test purposes 40 μl of the enzyme solution so obtained was added to a mixture of 400 μl of a mixture of 150 mM Hepes buffer at pH 7.4, 500 μM sodium orthovanadate, 0.1% Triton X-100, 10% glycerol, 200 μl water, 80 μl of 25 mM DTT and 80 μl of a mixture of 12.5 mM manganese chloride, 125 mM magnesium chloride and distilled water. There was thus obtained the test enzyme solution.
Equal volumes of this solution and a solution of epidermal growth factor (EGF; 20 μg/ml) were mixed.
[y-^32 P]ATP (3000 Ci/mM, 250 μCi) was diluted to a volume of 2 ml by the addition of a solution of ATP (100 μM) in distilled water. An equal volume of a 4 mg/ml solution of the peptide […]in a mixture of 40 mM Hepes buffer at pH 7.4, 0.1% Triton X-100 and 10% glycerol was added.
The test compound/EGF mixture solution (5 μl) was added to the test enzyme solution (10 μl) and the mixture was incubated at 0°-4° C. for 30 minutes. The ATP/peptide mixture (10 μl) was added and the mixture was incubated at 25° C. for 10 minutes. The phosphorylation reaction was terminated by the addition of 5% trichloroacetic acid (40 μl) and bovine serum albumin (BSA; 1 mg/ml, 5 μl). The mixture was allowed to stand at 4° C. for 30 minutes and then centrifuged. An aliquot (40 μl) of the supernatant was placed onto a strip of Whatman p 81 phosphocellulose paper. The strip was washed in 75 mM phosphoric acid (4×10 ml) and blotted dry. Radioactivity present in the filter paper was measured using a liquid scintillation counter (Sequence A). The reaction sequence was repeated in the absence of the EGF (Sequence B) and again in the absence of the test compound (Sequence C).
Receptor tyrosine kinase inhibition was calculated as follows: [formula]

[3] = tested on: human naso-pharyngeal cancer cell line KB; assay: Test (b): in vitro inhibition of EGF-stimulated growth of the human naso-pharyngeal cancer cell line KB; format: cell-based; conditions: 72 h, EGF 10 ng/ml, 3 days incubation, MTT, example values stated as approximate
Protocol: (b) An in vitro assay which determines the ability of a test compound to inhibit the EGF-stimulated growth of the human naso-pharyngeal cancer cell line KB.
Cell growth was determined after incubation for 3 days by the extent of metabolism of MTT tetrazolium dye to furnish a bluish colour. Cell growth was then determined in the presence of EGF (10 ng/ml) or in the presence of EGF (10 ng/ml) and a test compound at a range of concentrations. An lC50 value could then be calculated.

[4] = tested on: transplanted human mammary carcinoma which expresses EGF receptor tyrosine kinase; conditions: athymic nude mice; EGF receptor tyrosine kinase expressing; Toi et al., 1990; cited from earlier work
[5] = tested on: carcinoma which does not express EGF receptor tyrosine kinase; conditions: carcinoma not expressing EGF receptor tyrosine kinase; Toi et al., 1990; cited from earlier work
[6] = tested on: xenografts of the human vulval epidermoid carcinoma cell line A-431; assay: Test (c): in-vivo inhibition of growth of A-431 xenografts in athymic nude mice; set-up: species or system human (xenograft in athymic nude mice); conditions: Mus musculus, daily dosing, usually oral, tumour volume inhibition relative to untreated controls
Protocol: (c) An in-vivo assay in a group of athymic nude mice (strain ONU:Alpk) which determines the ability of a test compound (usually administered orally as a ball-milled suspension in 0.5% polysorbate) to inhibit the growth of xenografts of the human vulval epidermoid carcinoma cell line A-431. A-431 cells were maintained in culture in DMEM supplemented with 5% FCS nd 2 mM glutamine. Freshly cultured cells were harvested by trypsinization and injected subcutaneously (10 million cells/0.1 ml/mouse) into both flanks of a number of donor nude mice. When sufficient tumour material was available (after approximately 9 to 14 days), fragments of tumour tissue were transplanted in the flanks of recipient nude mice (test day 0). […] In some studies the dosing of the test compound was continued beyond test day 19, for example to test day 26. In each case, on the following test day the animals were killed and the final tumour volume was calculated from measurements of the length and width of the tumours. Results were calculated as a percentage inhibition of tumour volume relative to untreated controls.

Structure (SMILES) | pIC50 [2] | pIC50 [3] | other results
COc1cc2ncnc(Nc3cccc(Br)c3)c2cc1OC [4-(3'-bromoanilino)-6,7-dimethoxyquinazoline] |  |  | inhibitor of EGF receptor tyrosine kinase (in words) [1]: highly potent inhibitor
COc1cc2ncnc(Nc3ccc(F)c(Cl)c3)c2cc1OCC1OCCO1 [Example 2, 4-(3'-chloro-4'-fluoroanilino)-6-(1,3-dioxolan-2-ylmethoxy)-7-methoxyquinazoline] | 8.00 | 6.70 | 
O=CN/C=C/c1cc(O)ccc1O [erbstatin] |  |  | growth of transplanted human mammary carcinoma (in words) [4]: specifically attenuates the growth; growth of another carcinoma (in words) [5]: without effect on the growth
COc1cc2ncnc(Nc3ccc(F)c(Cl)c3)c2cc1OCC1(C)COC1 [Example 10, 4-(3'-chloro-4'-fluoroanilino)-7-methoxy-6-(3-methyloxetan-3-ylmethoxy)quinazoline] | 8.00 and 7.47 | 7.19 | 
COc1cc2ncnc(Nc3ccc(F)c(Cl)c3)c2cc1OCCC1OCCO1 [Example 3, 4-(3'-chloro-4'-fluoroanilino)-6-[2-(1,3-dioxolan-2-yl)ethoxy]-7-methoxyquinazoline] | 8.00 | 6.48 | ED50 [6]: ~50 mg/kg
COc1cc2ncnc(Nc3ccc(F)c(Cl)c3)c2cc1OCCCC1OCCO1 [Example 4, 4-(3'-chloro-4'-fluoroanilino)-6-[3-(1,3-dioxolan-2-yl)propoxy]-7-methoxyquinazoline] | 7.40 | 6.85 | 
COc1cc2ncnc(Nc3ccc(F)c(Cl)c3)c2cc1OCCC1OCCCO1 [Example 8, 4-(3'-chloro-4'-fluoroanilino)-6-[2-(1,3-dioxan-2-yl)ethoxy]-7-methoxyquinazoline] | 8.30 | 7.40 | 
COc1cc2ncnc(Nc3ccc(F)c(Cl)c3)c2cc1OCC1COCO1 (stereo not shown) [Example 5, 4-(3'-chloro-4'-fluoroanilino)-6-(1,3-dioxolan-4-ylmethoxy)-7-methoxyquinazoline] | 7.82 | 6.85 | 
